Measured values taken from patent US9221754B2, “Crystalline forms of zofenopril calcium” (Generics [UK] Limited, priority 2008, dated 2015).
Structures can show the parent of a compound that is named as a salt.

How the values were obtained:
Type in all cases: physicochemical
[1] = Polymorphic purity under dosage form preparation conditions (micronization or wet granulation)
[2] = Mechanical stress during particle size reduction (milling using a multimill); conditions: calcium salt
[3] = Pellet compression with an Infrared spectrophotometer press machine; conditions: pressure exerted ~10 Tons, calcium salt
[4] = Hygroscopicity of the crystalline forms
[5] = Slurry in water (10% w/v) exposed to 50-55° C. for six hours; conditions: calcium salt

Structure (SMILES)	change in polymorphic purity during dosage form preparation [1]	polymorphic stability to mechanical stress (milling), by XRPD, DSC and TGA [2]	polymorphic stability to compression, by XRPD, DSC and TGA [3]	hygroscopicity [4]	polymorphic stability of the water slurry, by XRPD, DSC and TGA [5]
C[C@H](CSC(=O)c1ccccc1)C(=O)N1C[C@@H](Sc2ccccc2)C[C@H]1C(=O)O [form C, (4S)-1-[(2S)-3-(benzoylthio)-2-methylpropionyl]-4-(phenylthio)-L-proline calcium salt]	very slight changes in polymorphic purity	–	–	–	–
C[C@H](CSC(=O)c1ccccc1)C(=O)N1C[C@@H](Sc2ccccc2)C[C@H]1C(=O)O [Polymorph E, (4S)-1-[(2S)-3-(benzoylthio)-2-methylpropionyl]-4-(phenylthio)-L-proline calcium salt]	–	retained its polymorphic composition	identical to that before compression	non-hygroscopic	no change
C[C@H](CSC(=O)c1ccccc1)C(=O)N1C[C@@H](Sc2ccccc2)C[C@H]1C(=O)O [form F, (4S)-1-[(2S)-3-(benzoylthio)-2-methylpropionyl]-4-(phenylthio)-L-proline calcium salt]	–	–	–	non-hygroscopic	–
